Experimental data as given in patent publication US5008285A, “(6,11-dihydro-11-oxodibenz[b,e]oxepin-yl)pentanoic acids and derivatives thereof” (Hoechst-Roussel Pharmaceuticals, Inc., priority 1989, dated 1991).
Where two headings read alike, the source gives them in different places.

How the values were obtained:
[1] = test system: adjuvant-induced polyarthritis syndrome; assay: adjuvant-induced polyarthritis syndrome in rats (inhibition of paw volume); format: in vivo, male Charles River-Wistar Lewis rats; settings: 504 h, rat, oral, from day before adjuvant, continued for 21 days
Description: The (6,11-dihydro-11-oxodibenz[b,e]oxepinyl)pentanoic acids and derivatives thereof of the present invention are useful as antiarthritic agents due to their ability to suppress arthritis-type inflammation in mammals. […] M. Perron and F. D. Wood, Arthritis and Rheumatism, 2, 440 (1959).
Groups of 10 male Charles River-Wistar Lewis rats weighing 150 to 175 g were individually housed and maintained on a regular rat chow diet. Water was given ad libitrim. The adjuvant was prepared by suspending 75 mg of Mycobacterium butyricum (Defco Laboratories, Detroit, Mich.) in 10 ml of white paraffin oil with continuous stirring for 2 hrs at room temperature prior to administration. Test compounds are prepared by suspending the drug in water, adding one drop of Tween 80 per 10 ml of suspension, and homogenizing. The adjuvant suspension (0.1 ml) was injected into the footpad of the left hind paw of the rat. Test compound suspensions were administered orally (10 ml/kg) the day before adjuvant suspension injection and the administration was continued for 21 days. One group of ten rats was used for the test drug, standard, adjuvant-injected control and non-injected control. Control animals received vehicle (10 ml/kg). Three doses of test drug and one dose of standard preparation were used. Injected and non-injected paw volumes were determined on the day the adjuvant suspension was given, and on subsequent days thereafter (usually days 5, 10, 18, and " the method of C. A. Winter, et al., Proc. Soc. Exp. Biol. Med., 111, 544 (1962).
The percent inhibition of paw volume (injected and non-injected hind paw) was calculated by the following formula: [formula]
ED50 -values, i.e., the dose at which the drug affects a 50% inhibition of paw volume, were estimated by the method of J. T. Litchfield and F. Wilcoxon, J. Pharm. Exp. Ther., 96, 99 (1948) and statistically evaluated by means of the student "t" test.

[2] = ulcerogenic activity test (GI); settings: in vivo, po
Description: (The ulcerogenic activity test is hereafter referred to as GI).

[3] = injected hind paw, read-out: ED50 (dose at which the drug affects a 50% inhibition of paw volume), injected paw
[4] = non-injected hind paw, read-out: ED50 (dose at which the drug affects a 50% inhibition of paw volume), non-injected paw

SMILES	ED50 [1, 3] [mg/kg]	ED50 [1, 4] [mg/kg]	TD50 [2] [mg/kg]	TD50 ([2]; read-out: GI ID50 (ulcerogenic activity)) [mg/kg]
CC(CCC(=O)O)c1ccc2c(c1)C(=O)c1ccccc1CO2 (stereo not drawn) [4-(6,11-Dihydro-11-oxodibenz[b,e]oxepin-2-yl)pentanoic acid]	6.4	3.4	> 100	
CC(C(=O)O)c1ccc2c(c1)C(=O)c1ccccc1CO2 (stereo not drawn) [2-(6,11-Dihydro-11-oxodibenz[b,e]-oxepin-2-yl)propionic acid]				5.5
CCCCC1C(=O)N(c2ccccc2)N(c2ccccc2)C1=O [Phenylbutazone]	12	6.8		
